The results in this text go back to article PMC3908613 (Bioscience Reports, 2014).

Some results are limits rather than exact numbers.

One assay concerns NIH3T3 cells. The assay can be described thus: Immunoblot of PKB phosphorylation in EGF-stimulated NIH3T3 cells. Format: cell-based. As to conditions: EGF 100 ng/ml, 4 μM D1870. As for the experimental part: (§1) BMDC (1.5×10^6 cells) were incubated in 6-well plates in RPMI supplemented with 0.3% FCS for 5 h at 37°C. […] NIH3T3 cells (2×10^4) were plated in 6-well plates for 48 h at 37°C. The cells were deprived of serum for 8 h in DMEM supplemented with 2 mg/ml BSA (Sigma) and then stimulated with 100 ng/ml EGF (epidermal growth factor; Peprotech) for 5 min at 37°C.
(§2) Cells were washed in cold PBS, lysed on ice for 10 min in lysis buffer (1% Triton X-100 containing 50 mM Tris–HCl (pH 7.5), 150 mM NaCl, 1 mM EGTA, 1 mM EDTA, 10 mM NaF, 1 mM sodium orthovanadate and 5 mM sodium pyrophosphate and protease inhibitors (Roche)) and centrifuged for 10 min at 20000 g at 4°C.
In general terms: A western blot detects proteins with antibodies after separation by electrophoresis.

Another assay has as its target T1, GST-Mst1 (Homo sapiens, UniProt Q13043).
T1 construct: GST; purchased DSTT
T1 sequence (Q13043 1-487): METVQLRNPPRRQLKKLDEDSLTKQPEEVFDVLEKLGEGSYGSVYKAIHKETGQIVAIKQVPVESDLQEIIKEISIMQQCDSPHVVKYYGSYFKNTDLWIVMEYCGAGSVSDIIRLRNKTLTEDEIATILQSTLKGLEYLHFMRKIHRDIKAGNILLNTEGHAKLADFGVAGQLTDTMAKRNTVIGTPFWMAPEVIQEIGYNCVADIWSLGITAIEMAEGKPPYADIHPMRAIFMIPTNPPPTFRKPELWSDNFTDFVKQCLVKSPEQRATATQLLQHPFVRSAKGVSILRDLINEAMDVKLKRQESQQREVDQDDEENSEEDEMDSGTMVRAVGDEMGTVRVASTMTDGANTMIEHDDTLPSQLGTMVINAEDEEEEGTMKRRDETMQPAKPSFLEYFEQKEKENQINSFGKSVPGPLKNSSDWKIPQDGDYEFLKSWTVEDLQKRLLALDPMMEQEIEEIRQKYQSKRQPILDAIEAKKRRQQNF
The assay can be described thus: Kinase assay for recombinant Mst1. Format: biochemical. As to conditions: 100 μM ATP, myelin basic protein substrate.

Another assay has as its target T2, Mst1 (Mus musculus, UniProt Q9JI11).
T2 construct: Mst1, Lok and Slk were immunoprecipated from 150 μg, 850 μg and 1 mg of cell lysates respectively; endogenous in cells; host or cells: mouse bone-marrow-derived dendritic cells (BMDC), immunoprecipitate
T2 sequence (Q9JI11 1-487): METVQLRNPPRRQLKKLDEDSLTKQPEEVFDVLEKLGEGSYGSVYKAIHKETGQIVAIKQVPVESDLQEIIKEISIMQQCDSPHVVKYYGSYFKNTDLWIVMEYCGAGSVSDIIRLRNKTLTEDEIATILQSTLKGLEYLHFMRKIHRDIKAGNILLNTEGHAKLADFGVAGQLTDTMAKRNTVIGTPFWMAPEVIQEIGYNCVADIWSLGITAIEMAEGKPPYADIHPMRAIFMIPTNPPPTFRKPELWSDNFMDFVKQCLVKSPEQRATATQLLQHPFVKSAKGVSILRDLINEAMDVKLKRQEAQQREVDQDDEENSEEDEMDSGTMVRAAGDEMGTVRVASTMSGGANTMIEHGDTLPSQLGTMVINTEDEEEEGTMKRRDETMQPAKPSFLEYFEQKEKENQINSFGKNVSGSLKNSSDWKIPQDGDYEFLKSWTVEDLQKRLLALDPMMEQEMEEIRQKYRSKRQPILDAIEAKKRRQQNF
The experiment in a line: Activity of Mst1 immunoprecipitated from BMDC. Format: biochemical, C57BL/6 mice. The settings on record: immunoprecipitates treated with 1 μM D1870; resting and LPS-stimulated DC. Here is the method:
Equal numbers of BMDC (1×10^7/dish) were incubated in 15 cm dishes in RPMI supplemented with 0.3% FCS for 3 h at 37°C then incubated for 30 min with or without 50 ng/ml LPS. The cells were washed once in cold PBS and lysed in the lysis buffer described above. Mst1, Lok and Slk were immunoprecipated from 150 μg, 850 μg and 1 mg of cell lysates respectively with 2 μg of anti-MST1 (Cell Signalling), anti-Slk (Bethyl) or anti-Lok (Bethyl) or control IgG (Santa Cruz Biotech) coupled to G-protein Sepharose (Amersham) for 1 h at 4°C. […] Kinase assays were performed as described above.
A combination of SILAC and nucleotide acyl
Alexander J. EDGAR*, Matthias TROST†, Colin WATTS*1 and Rossana ZARU*1
*Division of Cell Signalling and Immunolog y, University of Dundee, Dow Street, Dundee DD1 5EH, U.K., and †MRC Protein Phosphor ylation and Ubiquitylation Unit, College of Life Sciences, University of Dundee, Dow Street, Dundee DD1 5EH, U.K.
Supplementary Table S1 is available at http://www.bioscirep.
Mst1, Lok and Slk activities in DC either unstimulated or stimulated with LPS (50 ng/ml) for 30 min at 37 ◦ C. Immuno- […]
of triplicate stimulations. *P < 0.05, **P < 0.01, ***P < 0.001, ns not signiﬁcant.
1 Correspondence may be addressed to either of these authors (email c.watts@dundee.ac.uk or r.zaru@dundee.ac.uk). […]

For the next assay, the system named is BMDC. The assay can be described thus: Immunoblot of phosphorylated signalling proteins in stimulated BMDC. Format: cell-based, C57BL/6 mice. As for the experimental part:
as §1, §2
BMDC (5×10^6 cells) were stimulated as described above. Lysates were pre-cleared with protein G Sepharose beads (Roche) for 30 min at 4°C. Paxillin was immunoprecipitated with 2 μg of anti-paxillin (Millipore) or with anti-IgG antibodies (Santa Cruz Biotechnology) for 1 h at 4°C and then incubated with 15 μl protein G Sepharose beads for 1 h at 4°C. Beads were washed four times with lysis buffer and paxillin was eluted with NuPage sample buffer (Invitrogen). The immunoprecipitated proteins were separated by electrophoresis on a 10% (w/v) NuPage gel and transferred onto a nitrocellulose membrane. The membrane was probed with anti-phospho Ser250-paxilin (kind gift of Luc Sabourin, McMaster University, Canada) or anti-paxillin antibodies.

As to `CC(C)CCN1c2nc(Nc3cc(F)c(O)c(F)c3)ncc2N(C)C(=O)C1C` (stereo not shown) [D1870, BI-D1870], the PKB phosphorylation result with NIH3T3 cells is listed as “not affected”. Besides, the IC50 (commonly the concentration that gives 50% inhibition) at GST-Mst1 is ~0.3 µM. The “kinase activity of Mst1 immunoprecipitated from DC” value on Mst1 is “substantially inhibited”. Besides, in the assay with BMDC (LPS 50 ng/ml, 30 min), the “Concentration blocking phosphorylation of Bad (Ser112)” value was ≤ 1 µM; the “Concentration blocking phosphorylation of filamin A (Ser2152)” value was ≤ 1 µM; the “Erk1/2, p38 or JNK1/2 phosphorylation” value was “Neither inhibitor had any effect”; the GSK3α/β phosphorylation entry is given as “more potent”. Moreover, in the assay with BMDC (LPS 50 ng/ml, 30 min), the “PKB phosphorylation at Ser473 and Thr308” value is “complete block”; the “Phosphorylation of MSK1 and MK2” value is on record as “not affected”; the “phosphorylation of IκBα” value is reported as “neither D1870 nor BIX affected”. In the assay with BMDC (LPS, 30 min), the “phosphorylation of ERM proteins” value is “substantial decrease”. Also, the “phosphorylation of paxillin on Ser250” value in the assay with BMDC (LPS, 30 min, paxillin immunoprecipitated) is recorded as “prevented its phosphorylation at low concentrations”. Further, the PKB phosphorylation entry in the assay with BMDC (MIP1α 100 ng/ml, 5 min, 4 μM D1870) is on record as “impaired”.
